From patent US20190038641A1, “COMBINATION THERAPY FOR CASTRATION-RESISTANT PROSTRATE CANCER” (The Board of Regents of the University of Texas System, priority 2016, published 2019) come the findings set out here.

What all share (assay type): cell-based, human
One experiment deals with CYP24A1. As to the kind of experiment: Regulation of CYP24A1 mRNA expression in C4-2B castration-resistant cells (QRT-PCR). The text has this:
FIG. 2. Regulation of CYP24A1 in C4-2B castration resistant cell lines.
CYP24A1 induction by calcitriol has been reported by many laboratories. However, complete suppression of this induction by androgen has not been reported in the literature.
(§1) Dampened vitamin D/VDR-induced CYP24A1 mRNA expression in the presence of androgen is beneficial, as it would prevent ligand degradation, thereby enhancing VDR signaling.

Another experiment relates to SULT2B1. As to the kind of experiment: QRT-PCR assay of SULT2B1 mRNAs in C4-2B cells. The note with it: EB1089 10 nM, R1881 1 nM, FIG. 3B.
Source text: as §1

The subject of another experiment is HSD3β-1. In words: Regulation of HSD3β-1 expression (quantitative RT-PCR, Western blot) in castration-resistant prostate cancer cell lines. Particulars: C4-2B and C4-2 castration-resistant prostate cancer cell lines; FIG. 1. An excerpt:
FIG. 1. Regulation of HSD3β-1 in C4-2B castration-resistant cell lines.
(In general: A western blot detects proteins with antibodies after separation by electrophoresis.)

On to `C=C1/C(=C\C=C2/CCC[C@]3(C)[C@@H]([C@H](C)/C=C/C=C/C(O)(CC)CC)CC[C@@H]23)C[C@@H](O)C[C@@H]1O` [EB1089], for which, in the experiment on CYP24A1 (C4-2B cells, EB1089 10 nM, R1881 1 nM, FIG. 3A), the “CYP24A1 mRNA expression (induction)” value is around 2000 fold. In addition, in the experiment on SULT2B1, the “induction of SULT2B1 mRNAs” value is “induction”.
Consider `C=C1/C(=C\C=C2/CCC[C@]3(C)[C@@H]([C@H](C)CCCC(C)(C)O)CC[C@@H]23)C[C@@H](O)C[C@@H]1O` [calcitriol, 1,25-dihydroxycholecalciferol], for which the “expression of HSD3β-1 (messenger RNA and protein levels)” value in the experiment on HSD3β-1 is “strongly induced”. The “induction of CYP24A1” value in the experiment with CYP24A1 (C4-2B castration-resistant cells, calcitriol with or without androgen, FIG. 2) was “three orders of magnitude and more”.
